Data on one compound can be found in PMC12123601, “Light-Induced, Lysine-Targeting Irreversible Covalent Inhibition of the Human Oxygen Sensing Hydroxylase Factor Inhibiting HIF (FIH)” (Journal of the American Chemical Society, 2025).

Each structure is given as a SMILES string.

The test system of the test is EGLN3 mRNA level in Hep3B cells. The test is described as follows: qRT-PCR of FIH-dependent HIF target gene EGLN3 in Hep3B cells. Type of test: cell-based. As to conditions: for Upregulation of EGLN3 expression: absence of irradiation. The procedure: 5 […] sustainably engages with FIH and regulates the expression of FIH-dependent HIF target gene EGLN3 in Hep3B cells. (A) The CETSA assay was carried out with Hep3B cells grown in the presence of NBA-ZG-2291 (50 μM) for 12–48 h after 30 min of light activation (365 nm, 16 W). The intensity of the bands for grayscale analysis was referenced to the starting temperature (37 °C). α-Actinin was the sample loading control. n = 2; mean ± SD. […] (E) Correlation heatmap of the NBA-ZG-2291-treated group and the siFIH group by RNA-sequencing analysis. […] The relative fold change with respect to DMSO treated sample is shown (with normalization to HPRT gene levels). Mean ± SEM; n = 3. (G) TG level of NBA-ZG-2291-treated 3T3-L1-derived adipocytes. Mean ± SEM; n = 3. (H) Representative Oil Red O-stained images of the control, ZG-2291-treated, and NBA-ZG-2291-treated 3T3-L1-derived adipocytes. Scale Bar, 30 μm. P values were analyzed by two-way ANOVA comparing with the vehicle/control group (*, P < 0.05; **, P < 0.01; ***, P < 0.001, ****, P < 0.0001). See Methods (Quantitative PCR Analysis of Gene Expression) for assay details. TEXT PRINTED IN THE PICTURE: (A) no label printed: FIH: ΔTm (°C): 8.87 (Incubation time: 12 h); FIH: ΔTm (°C): 9.28 (Incubation time: 24 h); FIH: ΔTm (°C): 8.86 (Incubation time: 48 h); α-actinin: ΔTm (°C): 0.30 (Incubation time: 12 h); α-actinin: ΔTm (°C): -0.03 (Incubation time: 24 h); α-actinin: ΔTm (°C): -0.45 (Incubation time: 48 h) DOUBTS OF THE COPYIST ABOUT THIS PICTURE: Panel A: the picture prints no substance label with the ΔTm tables, so the label is left empty
The Egl-9 family hypoxia-inducible factor 3 gene (EGLN3, PHD3) is a HIF target gene, expression of which is negatively regulated by FIH catalysis, , potentially in a context-dependent manner. We therefore investigated the effect of the light-induced covalent inhibitor NBA-ZG-2291 on EGLN3 expression levels in Hep3B cells using ZG-2291 as a positive inhibition control. […] At a concentration of 10 μM, NBA-ZG-2291 increased EGLN3 expression by ∼2.5-fold with irradiation.
We also compared the time-dependent regulation of NBA-ZG-2291 on the HIF pathway with that of ZG-2291. […] This may result from the limited action time of the reversible inhibitor, perhaps due to its metabolism. The overall results provide strong evidence that the light-induced, lysine-targeting irreversible covalent inhibitor NBA-ZG-2291 can effectively and sustainably engage FIH, leading to the upregulation of FIH-dependent HIF target gene expression.
A general note: Real-time PCR tracks product formation cycle by cycle.

For `O=C(O)CNC(=O)c1ncc(-c2cc(-c3ccc(CO)c([N+](=O)[O-])c3)no2)cc1O` [NBA-ZG-2291], the “Upregulation of EGLN3” value (0.3 μM, after 30 min light activation (365 nm, 16 W)) came out at 1.35 fold. Further, the “Upregulation of EGLN3 expression” value by setting is: (10 μM) “did not result in significant upregulation”; (20 μM) “very weak upregulation”. In addition, the “Increase of EGLN3 expression” value (10 μM, with irradiation) was about 2.5 fold. Besides, the “Increase of EGLN3 expression, time course” value (maintained from 6 to 48 h, after 30 min irradiation) is listed as 2.5 fold.
